Data reported in patent publication US12492188B2, “1H-benzo[D]imidazole derivatives as TLR9 inhibitors for the treatment of fibrosis” (BRISTOL-MYERS SQUIBB COMPANY, priority 2020, dated 2025).
pIC50: −log10 of the molar value. Like-named read-outs stand apart in the source and are kept apart here.

What was measured:
Format in all cases: cell-based
human TLR9 = molecular target: T1, human TLR9 (Homo sapiens, UniProt Q9NR96); assay: TLR9 inhibition reporter assay (HEK-Blue cells, secreted embryonic alkaline phosphatase reporter)
T1 construct: host or cells: HEK-Blue cells (HEK293-derived reporter line)
T1 sequence (Q9NR96 26-1032): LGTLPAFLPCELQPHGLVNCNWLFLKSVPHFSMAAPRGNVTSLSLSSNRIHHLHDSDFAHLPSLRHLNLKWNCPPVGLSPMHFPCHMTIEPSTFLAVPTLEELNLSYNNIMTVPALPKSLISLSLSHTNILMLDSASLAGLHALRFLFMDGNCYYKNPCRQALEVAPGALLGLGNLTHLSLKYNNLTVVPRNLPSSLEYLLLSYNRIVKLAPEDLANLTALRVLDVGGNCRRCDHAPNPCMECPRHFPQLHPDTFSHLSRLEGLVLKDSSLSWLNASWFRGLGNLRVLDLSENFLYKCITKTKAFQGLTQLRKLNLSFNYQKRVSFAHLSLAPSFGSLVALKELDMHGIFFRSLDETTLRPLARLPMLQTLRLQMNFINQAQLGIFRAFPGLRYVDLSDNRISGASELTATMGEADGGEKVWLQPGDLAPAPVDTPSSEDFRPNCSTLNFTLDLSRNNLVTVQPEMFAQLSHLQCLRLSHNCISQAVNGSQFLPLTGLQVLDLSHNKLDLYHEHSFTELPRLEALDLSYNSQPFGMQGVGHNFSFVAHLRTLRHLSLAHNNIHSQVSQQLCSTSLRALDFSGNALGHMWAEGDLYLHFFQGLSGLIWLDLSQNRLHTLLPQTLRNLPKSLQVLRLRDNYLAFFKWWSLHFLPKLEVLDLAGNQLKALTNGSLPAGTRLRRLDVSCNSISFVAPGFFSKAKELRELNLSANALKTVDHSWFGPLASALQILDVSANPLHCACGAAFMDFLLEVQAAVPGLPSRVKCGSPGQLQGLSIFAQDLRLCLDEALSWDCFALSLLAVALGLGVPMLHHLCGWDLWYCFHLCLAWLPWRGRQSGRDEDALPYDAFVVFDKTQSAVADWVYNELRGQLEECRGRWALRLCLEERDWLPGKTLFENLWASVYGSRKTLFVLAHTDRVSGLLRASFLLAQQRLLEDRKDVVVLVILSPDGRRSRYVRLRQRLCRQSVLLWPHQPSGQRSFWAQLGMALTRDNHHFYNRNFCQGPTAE
How it was run: (§1)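 Inhibitors are tested in dose response (0.05 nM–50 μM) on HEK-Blue reporter cells expressing human TLR7, TLR8 or TLR9. After 30 min at room temperature, each line is stimulated with its own agonist (gardiquimod 7.5 μM, R848 15.9 μM or ODN2006 5 nM, final) and SEAP is measured 22 h later.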

human TLR7 = molecular target: T2, human TLR7 (Homo sapiens, UniProt Q9NYK1); assay: TLR7 inhibition reporter assay (HEK-Blue cells, secreted embryonic alkaline phosphatase reporter); conditions: HEK-Blue cells overexpressing human TLR7, stimulated with gardiquimod 7.5 μM; read-out: TLR 7 IC50
T2 construct: host or cells: HEK-Blue cells (HEK293-derived reporter line)
T2 sequence (Q9NYK1 27-1049): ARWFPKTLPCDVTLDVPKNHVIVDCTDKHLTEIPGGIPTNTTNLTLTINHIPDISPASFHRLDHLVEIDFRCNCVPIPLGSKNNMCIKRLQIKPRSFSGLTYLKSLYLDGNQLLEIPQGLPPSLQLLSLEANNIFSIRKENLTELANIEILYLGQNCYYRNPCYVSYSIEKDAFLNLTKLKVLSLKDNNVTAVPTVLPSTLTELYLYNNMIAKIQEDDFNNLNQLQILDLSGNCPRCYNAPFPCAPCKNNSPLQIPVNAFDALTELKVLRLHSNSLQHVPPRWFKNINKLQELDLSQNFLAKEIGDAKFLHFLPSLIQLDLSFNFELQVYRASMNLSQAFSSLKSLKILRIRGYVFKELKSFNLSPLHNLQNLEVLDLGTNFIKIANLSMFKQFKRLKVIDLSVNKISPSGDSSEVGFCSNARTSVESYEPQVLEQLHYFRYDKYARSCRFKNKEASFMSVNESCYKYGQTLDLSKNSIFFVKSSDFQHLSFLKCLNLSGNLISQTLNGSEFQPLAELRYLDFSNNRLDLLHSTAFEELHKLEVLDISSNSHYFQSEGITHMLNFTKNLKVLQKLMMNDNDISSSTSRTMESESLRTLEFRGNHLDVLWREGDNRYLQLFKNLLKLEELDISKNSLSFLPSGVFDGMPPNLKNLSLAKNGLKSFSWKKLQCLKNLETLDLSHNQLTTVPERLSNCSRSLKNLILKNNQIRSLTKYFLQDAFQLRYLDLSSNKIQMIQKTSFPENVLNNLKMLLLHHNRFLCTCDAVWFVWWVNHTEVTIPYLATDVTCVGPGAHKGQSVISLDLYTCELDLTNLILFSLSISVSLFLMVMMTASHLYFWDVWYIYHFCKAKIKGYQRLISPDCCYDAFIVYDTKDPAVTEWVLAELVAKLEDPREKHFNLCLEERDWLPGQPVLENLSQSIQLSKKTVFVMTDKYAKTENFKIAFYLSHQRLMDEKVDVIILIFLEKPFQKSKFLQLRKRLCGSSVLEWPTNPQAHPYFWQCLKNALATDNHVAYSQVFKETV
How it was run: as §1

human TLR8 = molecular target: T3, human TLR8 (Homo sapiens, UniProt Q9NR97); assay: TLR8 inhibition reporter assay (HEK-Blue cells, secreted embryonic alkaline phosphatase reporter); conditions: HEK-Blue cells overexpressing human TLR8, stimulated with R848 15.9 μM; read-out: TLR 8 IC50
T3 construct: host or cells: HEK-Blue cells (HEK293-derived reporter line)
T3 sequence (Q9NR97 27-1041): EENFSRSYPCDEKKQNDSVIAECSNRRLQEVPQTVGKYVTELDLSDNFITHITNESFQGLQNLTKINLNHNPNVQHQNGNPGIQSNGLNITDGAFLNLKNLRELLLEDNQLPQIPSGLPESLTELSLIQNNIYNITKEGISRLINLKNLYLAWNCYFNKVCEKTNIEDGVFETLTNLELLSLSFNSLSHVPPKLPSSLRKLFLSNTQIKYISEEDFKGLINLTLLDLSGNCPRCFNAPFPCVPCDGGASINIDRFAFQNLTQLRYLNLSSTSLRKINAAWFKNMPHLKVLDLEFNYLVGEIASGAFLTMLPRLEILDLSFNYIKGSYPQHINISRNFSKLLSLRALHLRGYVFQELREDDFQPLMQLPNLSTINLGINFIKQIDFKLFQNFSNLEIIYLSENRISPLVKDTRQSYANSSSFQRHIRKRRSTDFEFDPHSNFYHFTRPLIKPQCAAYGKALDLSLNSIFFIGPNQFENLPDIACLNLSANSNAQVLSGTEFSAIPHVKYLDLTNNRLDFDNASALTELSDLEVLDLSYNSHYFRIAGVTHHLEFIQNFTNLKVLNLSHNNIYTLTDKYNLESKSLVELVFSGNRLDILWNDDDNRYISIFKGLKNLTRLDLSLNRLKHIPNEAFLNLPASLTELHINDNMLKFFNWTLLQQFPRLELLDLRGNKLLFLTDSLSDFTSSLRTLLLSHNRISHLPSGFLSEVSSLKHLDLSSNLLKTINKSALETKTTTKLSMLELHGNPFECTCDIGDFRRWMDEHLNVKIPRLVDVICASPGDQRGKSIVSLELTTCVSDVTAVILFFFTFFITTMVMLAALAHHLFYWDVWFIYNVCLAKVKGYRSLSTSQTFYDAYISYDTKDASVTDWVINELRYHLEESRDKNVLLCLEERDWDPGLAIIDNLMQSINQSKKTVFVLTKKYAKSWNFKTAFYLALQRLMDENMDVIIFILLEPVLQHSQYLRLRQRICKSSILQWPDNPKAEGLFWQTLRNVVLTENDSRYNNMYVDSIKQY
How it was run: as §1

[1] = HEK-Blue cells overexpressing human TLR9, stimulated with ODN2006 5 nM, read-out: TLR 9 IC50
[2] = HEK-Blue human TLR9 reporter cells
[3] = HEK-Blue cells overexpressing human TLR9, stimulated with ODN2006 5 nM, 22 hour incubation, reporter readout

SMILES: COCCN1C2CCC1CC(N1CCC(c3cc(C)c4nc(-c5ccc(OC)c(OC)c5)n(C)c4c3)CC1)C2 (single isomer, unassigned) [Example 169, 2-(3,4-dimethoxyphenyl)-6-(1-(8-(2-methoxyethyl)-8-azabicyclo[3.2.1]octan-3-yl)piperidin-4-yl)-1,4-dimethyl-1H-benzo[d]imidazole]
- pIC50 (human TLR9): 6.70
- pIC50 (human TLR9; [1]): 6.69
- pIC50 (human TLR7): 4.98
- pIC50 (human TLR8): 4.63

SMILES: Cn1c(-c2ccc(S(C)(=O)=O)cc2)nc2c(F)cc(C3CCN(C4CC5CCC(C4)N5CC4CC4)CC3)cc21 (single isomer, unassigned) [Example 282, 6-(1-(8-(cyclopropylmethyl)-8-azabicyclo[3.2.1]octan-3-yl)piperidin-4-yl)-4-fluoro-1-methyl-2-(4-(methylsulfonyl)phenyl)-1H-benzo[d]imidazole]
- pIC50 (human TLR9; [1]): 6.97
- pIC50 (human TLR9; [2]): 6.96
- pIC50 (human TLR7): 5.15
- pIC50 (human TLR8): < 4.30

SMILES: CC(C)CN1CCC(N2CCC(c3cc4c(cc3F)nc(-c3ccc(S(C)(=O)=O)cc3)n4C)CC2)CC1 [Example 221, 5-fluoro-6-(1′-isobutyl-[1,4′-bipiperidin]-4-yl)-1-methyl-2-(4-(methylsulfonyl)phenyl)-1H-benzo[d]imidazole]
- pIC50 (human TLR9): 6.46
- pIC50 (human TLR9; [1]): 6.45
- pIC50 (human TLR7): 5.11
- pIC50 (human TLR8): < 4.30

SMILES: CC(C)CN1C2CCC1CC(N1CCC(c3cc(F)c4nc(-c5ccc(S(C)(=O)=O)cc5)n(C5CC5)c4c3)CC1)C2 (single isomer, unassigned) [Example 322, 1-cyclopropyl-4-fluoro-6-(1-(8-isobutyl-8-azabicyclo[3.2.1]octan-3-yl)piperidin-4-yl)-2-(4-(methylsulfonyl)phenyl)-1H-benzo[d]imidazole]
- pIC50 (human TLR9; [1]): 7.92
- pIC50 (human TLR9; [2]): 7.92
- pIC50 (human TLR7): 5.85
- pIC50 (human TLR8): < 4.30

SMILES: CS(=O)(=O)c1ccc(-c2nc3c(F)cc(C4CCN(C5CC6CCC(C5)N6CC5CC5)CC4)cc3n2C2CC2)cc1 (single isomer, unassigned) [Example 324, 1-cyclopropyl-6-(1-(8-(cyclopropylmethyl)-8-azabicyclo[3.2.1]octan-3-yl)piperidin-4-yl)-4-fluoro-2-(4-(methylsulfonyl)phenyl)-1H-benzo[d]imidazole]
- pIC50 (human TLR9; [1]): 7.38
- pIC50 (human TLR9; [2]): 7.38
- pIC50 (human TLR7): 5.82
- pIC50 (human TLR8): < 4.30

SMILES: CCOP(=O)(OCC)c1ccc(-c2nc3c(C)cc(C4CCN(C5CCN(CC(C)C)CC5)CC4)cc3n2C)cc1 [Example 421, diethyl(4-(6-(1′-isobutyl-[1,4′-bipiperidin]-4-yl)-1,4-dimethyl-1H-benzo[d]imidazol-2-yl)phenyl)phosphonate]
- pIC50 (human TLR9; [3]): 6.85
- pIC50 (human TLR9; [1]): 6.86
- pIC50 (human TLR7): 6.15
- pIC50 (human TLR8): < 4.30

SMILES: CC(C)N1CCC(N2CCC(c3cc(F)c4nc(-c5ccc(S(C)(=O)=O)cc5)n(C)c4c3)CC2)CC1 [Example 105, 4-fluoro-6-(1′-isopropyl-[1,4′-bipiperidin]-4-yl)-1-methyl-2-(4-(methylsulfonyl)phenyl)-1H-benzo[d]imidazole]
- pIC50 (human TLR9; [3]): 7.02
- pIC50 (human TLR7): 4.59
- pIC50 (human TLR8): < 4.30

SMILES: Cn1c(-c2ccc(S(C)(=O)=O)cc2)nc2c(F)c(C3CCN(C4CCN(C5CC5)CC4)CC3)ccc21 [Example 185, 5-(1′-cyclopropyl-[1,4′-bipiperidin]-4-yl)-4-fluoro-1-methyl-2-(4-(methylsulfonyl)phenyl)-1H-benzo[d]imidazole]
- pIC50 (human TLR9): 6.15
- pIC50 (human TLR9; [1]): 6.16
- pIC50 (human TLR7): < 4.30
- pIC50 (human TLR8): < 4.30

SMILES: Cc1cc(C2CCN(C3CCN(C(C)C)CC3)CC2)cc2c1nc(-c1ccc(S(C)(=O)=O)cc1)n2C [Example 22, 6-(1′-isopropyl-[1,4′-bipiperidin]-4-yl)-1,4-dimethyl-2-(4-(methylsulfonyl)phenyl)-1H-benzo[d]imidazole]
- pIC50 (human TLR9; [3]): 8.12
- pIC50 (human TLR7): 4.62
- pIC50 (human TLR8): < 4.30

SMILES: Cc1cc(C2CCN(C3CCN(CC(C)C)CC3)CC2)cc2[nH]c(-c3ccc4c(c3)OCCO4)nc12 [Example 62, 2-(2,3-dihydrobenzo[b][1,4]dioxin-6-yl)-6-(1′-isobutyl-[1,4′-bipiperidin]-4-yl)-4-methyl-1H-benzo[d]imidazole]
- pIC50 (human TLR9; [3]): 6.46
- pIC50 (human TLR9; [1]): 6.46
- pIC50 (human TLR7): 6.13
- pIC50 (human TLR8): < 4.30

SMILES: Cc1cc(-c2ccc(C3CCN(C4CCN(C)CC4)CC3)cc2)cc2c1nc(-c1ccc(S(C)(=O)=O)cc1)n2C [Example 400, 1,4-dimethyl-6-(4-(1′-methyl-[1,4′-bipiperidin]-4-yl)phenyl)-2-(4-(methylsulfonyl)phenyl)-1H-benzo[d]imidazole]
- pIC50 (human TLR9; [3]): 7.12
- pIC50 (human TLR9; [1]): 7.12
- pIC50 (human TLR7): 5.82
- pIC50 (human TLR8): 5.89
